# Values of other authors, collected in US20040121961A1, “Uroguanylin and cyclooxygenase-2 inhibitor combinations for inhibition of intestinal cancer” (priority 2004, published 2004).
# No end group written: not given here.
# Legend:
# [1] = system: T-84, human colon carcinoma cells; settings: treatment with uroguanylin; reported in PCT/US00/21998
# [2] = system: Min-mouse, an animal model for human Familial Adenomatous Polyposis (FAP); settings: oral administration, reported in PCT/US00/21998
substance,measurement,setting,value
"uroguanylin: enteric peptide hormone, GC-C receptor agonist; human uroguanylin chemically synthesized by solid phase peptide synthesis (NDDCELCVNVACTGCL; ends and bridges not checked; cysteine pairing not given here; UniProt Q16661 97-112, looked up)",apoptosis in T-84 cells,[1],induction of apoptosis
same,polyp formation in the intestinal tract,[2],inhibition in polyp formation
